{
  "source": "patent US20230091848A1",
  "about": "“DISEASE DETECTION AND TREATMENT BASED ON PHENYLACETYL GLUTAMINE LEVELS” (The Cleveland Clinic Foundation, priority 2020, published 2023)",
  "key": {"[1]": {"system": "human platelet rich plasma (PRP)", "assay": "Platelet aggregometry in platelet rich plasma", "assay_type": "cell-based", "conditions": "submaximal ADP", "procedure": "ADP (up to 4 μM), TRAP6 (up to 10 μM) and collagen (up to 1.0 μg/mL) were used as indicated to initiate aggregation with constant stirring (600 rpm)."}, "[2]": {"system": "FeCl3-induced carotid artery injury model", "assay": "Carotid artery FeCl3 injury thrombosis assay", "assay_type": "in vivo, mice", "conditions": "i.p. injection 50 mg/kg; vs phenylalanine or saline", "procedure": "Briefly, rhodamine 6G (100 μL; 0.5 mg/mL) was injected directly into the right jugular vein to label platelets. The left carotid artery was exposed and injured by placing a FeCl3-soaked filter paper for 1 minute. […] Time to cessation of blood flow through clot formation for all studies was determined by visual inspection by two different investigators. End points were set as cessation of blood flow for 30 seconds to 30 minutes."}, "washed human platelets": {"system": "washed human platelets", "assay": "Intracellular Ca2+ in Fura 2 loaded washed platelets", "assay_type": "cell-based", "conditions": "sub-maximal (0.02 U) thrombin", "procedure": "To prepare washed platelets for intracellular Ca^2+ measurements, 100 nM prostaglandin E1 (PGE-1) was added to PRP and the PRP was then centrifuged at 500×g for 20 min at 22° C. […] For ratiometric fluorescence measurements, washed platelets were incubated with Fura 2-AM (1 μM) at 22° C. for 30 min. Excess Fura 2-AM was removed by centrifugation at 500×g for 30 min."}},
  "data": [
    {"compound": "O=C(O)CNC(=O)Cc1ccccc1", "note": "[PAGly, phenylacetylglycine]", "values": [
      {"measurement": "ADP-stimulated platelet aggregation response", "setting": "[1]", "value": "augmented stimulus (ADP) dependent platelet aggregation response"},
      {"measurement": "platelet thrombus formation within the injured carotid artery", "setting": "[2]", "value": "induced heightened platelet thrombus formation within the injured carotid artery"},
      {"measurement": "time to cessation of flow (occlusion time)", "setting": "[2]", "value": "reduced the time to cessation of flow following injury"},
      {"measurement": "thrombin-evoked augmentation of [Ca2+]i", "setting": "washed human platelets", "value": "provoked further rise in [Ca^2+]i in response to sub-maximal thrombin exposure"}
    ]}
  ]
}
